Test results published in ChEMBL document CHEMBL4321810, “Structural Characterization of Agonist Binding to an A3 Adenosine Receptor through Biomolecular Simulations and Mutagenesis Experiments” (J Med Chem, 2019).
Numbering of substitutions follows the chain as printed. The source made the active and inactive calls.

Key:
[1] = test system: T1, Adenosine receptor A3 (Homo sapiens), P0DMS8 [S271A]
T1 sequence (whole entry): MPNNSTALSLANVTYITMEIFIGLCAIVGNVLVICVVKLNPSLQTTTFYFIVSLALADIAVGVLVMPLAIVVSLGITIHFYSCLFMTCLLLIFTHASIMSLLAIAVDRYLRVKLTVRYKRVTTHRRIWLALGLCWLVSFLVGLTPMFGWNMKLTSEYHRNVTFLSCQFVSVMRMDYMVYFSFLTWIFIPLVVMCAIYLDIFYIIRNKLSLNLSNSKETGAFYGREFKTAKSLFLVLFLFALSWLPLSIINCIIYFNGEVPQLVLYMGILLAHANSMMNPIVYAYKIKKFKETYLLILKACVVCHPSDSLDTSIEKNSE

[2] = test system: T2, Adenosine receptor A3 (Homo sapiens), P0DMS8 [N250A]
T2 sequence (whole entry): T1 sequence (whole entry) with N250A, A271S

[3] = test system: T3, Adenosine receptor A3 (Homo sapiens), P0DMS8 [F168A]
T3 sequence (whole entry): T1 sequence (whole entry) with F168A, A271S

[4] = test system: T4, Adenosine receptor A3 (Homo sapiens), P0DMS8 [I268A]
T4 sequence (whole entry): T1 sequence (whole entry) with I268A, A271S

[5] = test system: T5, Adenosine receptor A3 (Homo sapiens), P0DMS8 [H272A]
T5 sequence (whole entry): T1 sequence (whole entry) with A271S, H272A

[6] = test system: T6, Adenosine receptor A3 (Homo sapiens), P0DMS8 [L246A]
T6 sequence (whole entry): T1 sequence (whole entry) with L246A, A271S

Measured: pIC50

CNC(=O)[C@H]1O[C@@H](n2cnc3c(NCc4cccc(I)c4)ncnc32)[C@H](O)[C@@H]1O
inactive: [1] | [2] | [3] | [4] | [5] | Homo sapiens | [6]

CCNC(=O)[C@H]1O[C@@H](n2cnc3c(N)ncnc32)[C@H](O)[C@@H]1O
inactive: [1] | [2] | [3] | [4] | [5] | Homo sapiens | [6]
